The target of the test is T1, human orexin type 2 receptor (Homo sapiens, UniProt O43614).
T1 construct: expressed in transfected cells
T1 sequence (O43614 1-444): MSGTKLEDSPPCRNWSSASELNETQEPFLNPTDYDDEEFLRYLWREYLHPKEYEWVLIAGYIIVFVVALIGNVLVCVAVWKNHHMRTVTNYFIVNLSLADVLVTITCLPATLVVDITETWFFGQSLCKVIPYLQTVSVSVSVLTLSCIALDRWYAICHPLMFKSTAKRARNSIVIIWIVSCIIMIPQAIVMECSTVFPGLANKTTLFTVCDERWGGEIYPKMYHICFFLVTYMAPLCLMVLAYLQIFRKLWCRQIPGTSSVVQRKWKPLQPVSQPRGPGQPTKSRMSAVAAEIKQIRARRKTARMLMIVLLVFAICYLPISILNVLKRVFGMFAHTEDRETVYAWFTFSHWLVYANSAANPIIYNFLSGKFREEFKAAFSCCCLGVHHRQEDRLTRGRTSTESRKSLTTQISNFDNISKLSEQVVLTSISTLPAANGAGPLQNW
The experiment in a line: Measurement of orexin type 2 receptor agonist activity (calcium fluorescence, Fluo-4 AM, FDSS). Format: cell-based. As to conditions: compound at 3 μM; CHO cells forcibly expressing human OX2 receptor; DMSO = 0%, orexin A (human) 10 nM = 100%. The source says: Experimental Example 1: Obtainment of Cell Stably Expressing Human Orexin Type 2 Receptor (hOX2R)
To obtain a cell clone stably expressing human orexin type 2 receptor, human orexin type 2 receptor cDNA was inserted into pcDNA3.1(+) plasmid vector (Invitrogen), and a plasmid DNA for expression of human orexin type 2 receptor (pcDNA3.1(+)/hOX2R) was cloned. The plasmid DNA was introduced into CHO-dhfr cell by an electroporation method, and human orexin type 2 receptor expressing clone cells were obtained by limiting dilution method by using G418 drug resistance as a selection marker.
Experimental Example 2: Measurement of Orexin Type 2 Receptor Agonist Activity
CHO cells forcibly expressing human OX2 receptor were seeded in each well of 384 well black transparent bottom plate (BD Falcon) at 7,500 cells/well, and cultured for one day in a 5% CO2 incubator at 37° C. After removal of the medium in the cell plate, assay buffer A containing a calcium indicator (HBSS (Thermo Fisher Scientific), 20 mM HEPES (Thermo Fisher Scientific), 0.1% BSA (Wako Pure Chemical Industries, Ltd. or Sigma-Aldrich), 2.5 μg/mL Fluo-4 AM (DOJINDO Chemical), 0.08% Pluronic F127 (DOJINDO Chemical), 1.25 mM probenecid (DOJINDO Chemical)) was added at 30 μL/well. The plate was stood for 30 min in a 5% CO2 incubator at 37° C., and further stood at room temperature for 30 min. A test compound prepared by diluting with assay buffer B (HBSS, 20 mM HEPES, 0.1% BSA) was added at 10 μL/well, and the fluorescence value was measured by FDSSμCELL (Hamamatsu Photonics K.K.) every one sec for 1 min, and thereafter every two sec for 1 min 40 sec. The activity (%) of the test compound was calculated assuming that variation in the fluorescence value when DMSO was added instead of the test compound was 0%, and variation in the fluorescence value when orexin A (human) (PEPTIDE INSTITUTE, INC.) was added at the final concentration of 10 nM was 100%. The activity of each compound at the concentration of 3 μM was shown below.
Take `CN(C)C(=O)C(=O)N[C@H]1CCN(C(=O)C2(C#N)CCC2)[C@H]1Cc1cccc(-c2cccc(F)c2)c1` [Example 36, N^~2^~-((2S,3S)-1-(1-cyanocyclobutane-1-carbonyl)-2-[(3′-flluoro[1,1′-biphenyl]-3-yl)methyl]pyrrolidin-3-yl]-N^~1^~,N^~1^~- dimethylethanediamide]: the “OX2R agonist activity (3 μM, %)” value is recorded as 86%.

On to `CN(C)C(=O)C(=O)N[C@H]1CCN(C(=O)C2(O)CCC2)[C@H]1Cc1cccc(-c2cccc(F)c2)c1` [Example 37, N^~2^~-[(2S,3S)-2-[(3′-fluoro[1,1′-biphenyl]-3-yl)methyl]-1-(1-hydroxycyclobutane-1-carbonyl)pyrrolidin-3-yl]-N^~1^~,N^~1^~- dimethylethanediamide], for which the “OX2R agonist activity (3 μM, %)” value is 101%.

`CN(C)C(=O)C(=O)N[C@H]1CCN(C(=O)C(C)(C)CO)[C@H]1Cc1cccc(-c2cccc(F)c2)c1` [Example 40, N^~2^~-[(2S,3S)-2-[(3′-fluoro[1,1′-biphenyl]-3-yl)methyl]-1-(3-hydroxy-2,2-dimethylpropanoyl)pyrrolidin-3-yl]-N^~1^~,N^~1^~-dimethylethanediamide]: the “OX2R agonist activity (3 μM, %)” value amounted to 79%.

Take `O=C(N[C@H]1CCN(C(=O)C2(F)CCC2)[C@H]1Cc1cccc(-c2cccc(F)c2)c1)[C@@H]1CCCO1` [Example 43, (2S)-N-[(2S,3S)-2-[(3′-fluoro[1,1′-biphenyl]-3-yl)methyl]-1-(1-fluorocyclobutane-1-carbonyl)pyrrolidin-3-yl]oxolane-2-carboxamide]: the “OX2R agonist activity (3 μM, %)” value stood at 62%.

On to `O=C(N[C@H]1CCN(C(=O)C2(O)CCC2)[C@H]1Cc1cccc(-c2cccc(F)c2)c1)[C@@H]1CCCO1` [Example 45], for which the “OX2R agonist activity (3 μM, %)” value is given as 86%.

As for `CC(C)(CO)C(=O)N1CC[C@H](NC(=O)[C@@H]2CCCO2)[C@@H]1Cc1cccc(-c2cccc(F)c2)c1` [Example 46, (2S)-N-[(2S,3S)-2-[(3′-fluoro[1,1′-biphenyl]-3-yl)methyl]-1-(3-hydroxy-2,2-dimethylpropanoyl)pyrrolidin-3-yl]oxolane-2-carboxamide], the “OX2R agonist activity (3 μM, %)” value was found to be 67%.

The record behind these values is patent US11655241B2, “Heterocyclic compound and use thereof” (Takeda Pharmaceutical Company Limited, priority 2018, dated 2023).
